Source: US7666873B2, “N-phenyl-(2R,5S)dimethylpiperazine derivative” (Astellas Pharma Inc., priority 2002, dated 2010)
Counter-ions that a name gives are not always drawn. Like-named read-outs stand apart in the source and are kept apart here.

Columns and labels:
[1] = tested on: ventral prostate of mature male rat; experiment: Prostate gland reducing action toward mature male rat; type: in vivo; conditions: 360 h; oral, once a day for 15 days, male Wistar rat, ventral prostate wet weight, linear regression
Description: 3. Prostate Gland Reducing Action Toward Mature Male Rat
To a male 9-10 weeks old Wistar rat, the compound of the present invention suspended in a 0.5% methylcellulose solution was orally administered once a day continuously for 15 days. After 6 hours from the final administration, the wet weight of its ventral prostate was measured and a prostate gland reducing of the compound of the present invention was investigated.
The prostate gland reducing of the compound of the present invention was calculated according to the following formula using a group to which the compound of the present invention was administered as a test group and a group to which only methylcellulose was administered as a control group. Lessening ratio (%)=100(B−A)/B
A: Wet weight of ventral prostate in test group
B: Wet weight of ventral prostate in control group
From the lessening ratio determined in the above, an ED50 value was calculated by the linear regression method.

human androgen receptor [2] = biological target: T1, human androgen receptor (Homo sapiens, UniProt P10275); experiment: Transcription activating action toward human androgen receptor (agonistic action), MMTV luciferase reporter in CHO cells; type: cell-based; conditions: ratio to transcription activity induced by 1 nM DHT; CHO/MMTV and CHO/SV40 stable transformants
T1 construct: expressed in transfected cells
T1 sequence (P10275 1-920): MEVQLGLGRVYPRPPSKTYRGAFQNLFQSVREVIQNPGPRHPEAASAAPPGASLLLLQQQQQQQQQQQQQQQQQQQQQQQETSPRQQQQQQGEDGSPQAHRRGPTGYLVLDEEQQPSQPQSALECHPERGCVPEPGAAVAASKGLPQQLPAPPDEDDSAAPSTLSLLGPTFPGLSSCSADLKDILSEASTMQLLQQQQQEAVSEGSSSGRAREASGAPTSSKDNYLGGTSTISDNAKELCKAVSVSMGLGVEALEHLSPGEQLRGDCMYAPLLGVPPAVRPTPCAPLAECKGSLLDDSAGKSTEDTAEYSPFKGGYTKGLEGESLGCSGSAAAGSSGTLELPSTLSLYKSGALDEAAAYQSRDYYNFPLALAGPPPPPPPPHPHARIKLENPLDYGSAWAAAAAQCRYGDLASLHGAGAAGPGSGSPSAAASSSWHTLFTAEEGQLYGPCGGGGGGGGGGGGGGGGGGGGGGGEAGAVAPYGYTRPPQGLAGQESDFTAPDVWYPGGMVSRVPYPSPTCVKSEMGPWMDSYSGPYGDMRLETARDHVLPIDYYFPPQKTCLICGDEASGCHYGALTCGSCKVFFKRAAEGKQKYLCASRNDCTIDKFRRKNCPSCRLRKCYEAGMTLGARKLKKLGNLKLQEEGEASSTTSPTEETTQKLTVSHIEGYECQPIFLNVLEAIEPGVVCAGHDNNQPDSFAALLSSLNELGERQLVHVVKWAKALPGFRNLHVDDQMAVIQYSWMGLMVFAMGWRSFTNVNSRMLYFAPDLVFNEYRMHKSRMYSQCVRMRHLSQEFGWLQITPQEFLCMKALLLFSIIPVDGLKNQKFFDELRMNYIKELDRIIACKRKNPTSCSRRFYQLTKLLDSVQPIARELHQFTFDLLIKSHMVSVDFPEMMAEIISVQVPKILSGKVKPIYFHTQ
Description: 1. Transcription Activation Regulatory Action Toward Human Androgen Receptor
Acquisition of Human Androgen Receptor-Expressing, Stable Transformant of MMTV Reporter Gene, and Stable Transformant of SV40 Reporter Gene
CHO cells were seeded on a dish for cell culture having a diameter of 100 mm in an amount of 1×10^6 cells. After 12 to 18 hours, a human androgen receptor-expressing plasmid, MMTV-LTR luciferase reporter plasmid (also inclusive of neomycin resistant gene) co-precipitated with calcium phosphate was added thereto to effect transfection. […]
CHO/MMTV stable transformant cells and CHO/SV40 stable transformant cells were each seeded to a 96-well luminoplate for cell culture in an amount of 2×10^4 cells/well. […] Then, emitted light intensity was measured by means of a luminometer, the intensity being regarded as luciferase activity obtained by MMTV-LTR transcription activation due to human androgen receptor and nonspecific activation of SV40 promoter transcription.
The transcription activating action of the compound of the present invention was calculated according to the following equation as a ratio to the transcription activity induced by 1 nM DHT. […]

human androgen receptor [3] = biological target: T1, human androgen receptor; experiment: Transcription activation inhibitory action toward human androgen receptor (antagonistic action), MMTV luciferase reporter in CHO cells; type: cell-based
Description: b) Evaluation of Transcription Activation Inhibitory Action Toward Human Androgen Receptor (Antagonistic Action)
CHO/MMTV stable transformant cells and CHO/SV40 stable transformant cells were each inoculated to a 96-well luminoplate for cell culture in an amount of 2×10^4 cells. After 6 to 8 hours, each of the compounds of the present invention was added together with DHT (final concentration of 0.3 nM). After about 18 hours from the addition of the compound, 20 μl of a solution containing 1% triton-X and 10% glycerin was added thereto to dissolve the cells and 100 μl of a luciferase substrate solution containing 0.47 mM luciferin was further added thereto. Then, emitted light intensity was measured using a luminometer, the intensity being regarded as luciferase activity obtained by MMTV-LTR transcription activation due to androgen receptor and nonspecific activation of SV40 promoter transcription.
The transcription activation inhibitory action of the compound of the present invention was calculated according to the following equation as an inhibitory ratio to the transcription activity induced by 0.3 nM DHT. Inhibitory ratio (%)=100(I′−X′)/(I′−B)
I′: (MMTV luciferase activity)/(SV40 luciferase activity) in the case that 0.3 nM DHT is only added
B: (MMTV luciferase activity)/(SV40 luciferase activity) without treatment
X′: (MMTV luciferase activity)/(SV40 luciferase activity) in the case that the compound of the present invention is added together with 0.3 nM DHT
IC50 was determined from the concentration of the compound of the present invention at which the inhibitory ratio calculated by the above method reached 50%.

`COc1cc(N2C[C@@H](C)N(C(=O)Nc3ccc(C(F)(F)F)nc3)C[C@@H]2C)ccc1C#N` (as salt: salt) [Example 3-15, (2R,5S)-4-(4-cyano-3-methoxyphenyl)-2,5-dimethyl-N-(6-trifluoromethyl-3-pyridyl)piperazine-1-carboxamide] gave a melting point of 211 to 212 °C.
`C[C@@H]1CN(c2ccc(C#N)c(Br)c2)[C@@H](C)CN1C(=O)Nc1ccc(C(F)(F)F)nc1` (as salt: salt) [Example 3-23, (2R,5S)-4-(3-bromo-4-cyanophenyl)-2,5-dimethyl-N-(6-trifluoromethyl-3-pyridyl)piperazine-1-carboxamide] showed a melting point of 216 to 218 °C.
With `C[C@@H]1CN(c2ccc(C#N)c(Cl)c2)[C@@H](C)CN1C(=O)Nc1cnc(C2CC2)nc1` [Example 3-9, (2R,5S)-4-(3-chloro-4-cyanophenyl)-N-(2-cyclopropylpyrimidin-5-yl)-2,5-dimethylpiperazine-1-carboxamide] the ED50 [1] was 4.5 mg/kg.
In the case of `C[C@@H]1CN(c2ccc(C#N)c(Cl)c2)[C@@H](C)CN1C(=O)Nc1ccc(C#N)nc1` [Example 3-12, (2R,5S)-4-(3-chloro-4-cyanophenyl)-N-(6-cyano-3-pyridyl)-2,5-dimethylpiperazine-1-carboxamide], the ED50 [1] is reported as 1.7 mg/kg, the agonistic induction ratio (human androgen receptor [2]) is reported as no more than 1% and the IC50 (human androgen receptor [3]) is reported as 40 nM.
Work on `COc1cc(N2C[C@@H](C)N(C(=O)Nc3ccc(C(F)(F)F)nc3)C[C@@H]2C)ccc1C#N` [Example 3-15, (2R,5S)-4-(4-cyano-3-methoxyphenyl)-2,5-dimethyl-N-(6-trifluoromethyl-3-pyridyl)piperazine-1-carboxamide] yielded an ED50 [1] of 4.1 mg/kg and an IC50 (human androgen receptor [3]; against 0.3 nM DHT, CHO/MMTV and CHO/SV40 stable transformants, read-out: Transcription activation inhibitory action (IC50 nM)) of 130 nM.
For `C[C@@H]1CN(c2ccc(C#N)c(Br)c2)[C@@H](C)CN1C(=O)Nc1ccc(C(F)(F)F)nc1` [Example 3-23, (2R,5S)-4-(3-bromo-4-cyanophenyl)-2,5-dimethyl-N-(6-trifluoromethyl-3-pyridyl)piperazine-1-carboxamide], the ED50 [1] was 1.1 mg/kg and the IC50 (human androgen receptor [3]) was 53 nM.
Molecule `C[C@@H]1CN(c2ccc(C#N)c(C(F)(F)F)c2)[C@@H](C)CN1C(=O)Nc1cnc(C2CC2)nc1` [Example 3-30, (2R,5S)-4-(4-cyano-3-trifluoromethylphenyl)-N-(2-cyclopropylpyrimidin-5-yl)-2,5-dimethylpiperazine-1-carboxamide] has an ED50 [1] of 3.9 mg/kg and an IC50 (human androgen receptor [3]) of 68 nM.
